Source: ChEMBL document CHEMBL4251642 (Eur J Med Chem, 2018)
The source made the active and inactive calls. No cut-off for these calls is given here.

Legend:
[1] = molecular target: Neuraminidase (Influenza A virus (strain A/Wilson-Smith/1933 H1N1) (Influenza A virus(strain A/WS/1933 H1N1)), UniProt P03470)
Influenza A virus [2] = assay: Antiviral activity against Influenza A virus (A/WSN/1933(H1N1)) infected in MDCK cells assessed as inhibition of virus-induced cytopathic effect after 48 hrs by CellTiter96 Aqueous non-radioactive cell proliferation assay; type: functional, organism-based
[3] = molecular target: Neuraminidase (Influenza A virus (strain A/Wilson-Smith/1933 H1N1) (Influenza A virus(strain A/WS/1933 H1N1)), UniProt P03470); remark: listed apart in the source
[4] = Cytotoxicity against MDCK cells after 48 hrs by CellTiter96 Aqueous non-radioactive cell proliferation assay; type: cell-based, Canis lupus familiaris; settings: dog
Influenza A virus [5] = assay: Antiviral activity against Influenza A virus (A/WSN/1933(H1N1)) infected in BALB/c mouse assessed as mouse survival at 0.72 umol/day, po for 5 consecutive days measured on day 14 post dose; type: functional, organism-based
[6] = molecular target: Neuraminidase (Influenza A virus (A/Memphis/1/1971(H3N2)), UniProt P03471); type: cell-based, Influenza A virus (A/Brisbane/10/2007(H3N2)), HEK293
Influenza A virus [7] = assay: Antiviral activity against Influenza A virus (A/WSN/1933(H1N1)) infected in BALB/c mouse assessed as mouse survival at 0.96 umol/day, po for 5 consecutive days measured on day 14 post dose; type: functional
[8] = Drug level in rabbit serum treated with (1S,2S,3R,4R)-3-[(S)-1-Acetamido-2-ethylbutyl]-2-[[3-((E)-3-(3,4-dihydroxyphenyl)acryloyloxy)propyl]carbamoyloxy]-4-guanidinocyclopentane-1-carboxylic acid at 37 degC after 24 hrs by HPLC-ESI-MS analysis; type: ADME, cell-free, Oryctolagus cuniculus
[9] = Stability in rabbit serum at 37 degC after 24 hrs by HPLC-ESI-MS analysis; type: ADME, cell-free, Oryctolagus cuniculus
[10] = Drug metabolism in rabbit serum assessed as 3-[(1S,2R,3R,5S)-2-[(S)-1-acetamido-2-ethylbutyl]-5-carboxy-3-guanidinocyclopentoxycarbonyl]aminopropan-1-aminium trifluoroacetate formation at 37 degC after 24 hrs by HPLC-ESI-MS analysis; type: ADME, cell-free, Oryctolagus cuniculus
[11] = Drug metabolism in rabbit serum assessed as (1S,2S,3R,4R)-3-[(S)-1-acetamido-2-ethylbutyl]-4-guanidino-2-[(3-hydroxypropyl)carbamoyloxy]cyclopentane-1-carboxylic acid formation at 37 degC after 24 hrs by HPLC-ESI-MS analysis; type: ADME, cell-free, Oryctolagus cuniculus

Neuraminidase (Influenza A virus (strain A/Wilson-Smith/1933 H1N1) (Influenza A virus(strain A/WS/1933 H1N1)), UniProt P03470), sequence (P03470 whole entry): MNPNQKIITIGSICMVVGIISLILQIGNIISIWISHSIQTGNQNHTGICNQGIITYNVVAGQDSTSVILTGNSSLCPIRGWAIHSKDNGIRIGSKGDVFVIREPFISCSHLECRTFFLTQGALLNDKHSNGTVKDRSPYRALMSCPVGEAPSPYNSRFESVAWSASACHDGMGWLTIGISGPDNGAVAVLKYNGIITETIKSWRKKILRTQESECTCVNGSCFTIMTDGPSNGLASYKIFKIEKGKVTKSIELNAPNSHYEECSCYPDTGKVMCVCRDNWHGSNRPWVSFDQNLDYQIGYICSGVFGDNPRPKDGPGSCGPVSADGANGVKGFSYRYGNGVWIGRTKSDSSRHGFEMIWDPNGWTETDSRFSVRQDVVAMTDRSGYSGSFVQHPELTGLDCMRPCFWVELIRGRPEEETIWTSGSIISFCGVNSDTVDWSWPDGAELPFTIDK
Neuraminidase (Influenza A virus (A/Memphis/1/1971(H3N2)), UniProt P03471), sequence (P03471 whole entry): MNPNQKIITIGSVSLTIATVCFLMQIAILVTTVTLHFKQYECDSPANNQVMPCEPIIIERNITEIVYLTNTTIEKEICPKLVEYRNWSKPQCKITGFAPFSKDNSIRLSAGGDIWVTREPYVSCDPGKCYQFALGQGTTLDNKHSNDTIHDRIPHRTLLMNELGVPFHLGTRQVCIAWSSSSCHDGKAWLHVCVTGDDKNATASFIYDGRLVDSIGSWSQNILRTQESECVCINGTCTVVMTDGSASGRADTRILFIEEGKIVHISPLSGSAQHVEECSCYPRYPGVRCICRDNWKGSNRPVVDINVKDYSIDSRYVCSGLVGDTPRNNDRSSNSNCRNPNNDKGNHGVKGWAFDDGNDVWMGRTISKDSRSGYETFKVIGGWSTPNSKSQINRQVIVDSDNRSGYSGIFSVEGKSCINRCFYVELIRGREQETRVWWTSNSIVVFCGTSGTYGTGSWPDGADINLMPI

Row | Compound | IC50 [1] [nM] | EC50 (Influenza A virus [2]) [nM] | IC50 [3] [nM] | CC50 at 48 h [4] [µM] | Activity (Influenza A virus [5]) | IC50 [6] [nM] | Survival (Influenza A virus [7]) [%] | Drug uptake [8] [%] | Stability [9] | Drug metabolism [10] | Drug metabolism [11] | Activity (Influenza A virus [7])
1 | CCC(CC)[C@H](NC(C)=O)[C@@H]1[C@H](OC(=O)NCCCOC(=O)/C=C/c2ccc(O)c(O)c2)[C@@H](C(=O)O)C[C@H]1NC(=N)N | 1.05 | 1.68 | 0.9 | > 100 | Active | 27.2 | – | – | – | – | – | –
2 | CCC(CC)[C@H](NC(C)=O)[C@@H]1[C@H](OC(=O)NCCCOCCCc2ccc(O)c(O)c2)[C@@H](C(=O)O)C[C@H]1NC(=N)N | 0.67 | 3.5 | – | > 100 | – | – | 50 | – | – | – | – | –
3 | CCC(CC)[C@H](NC(C)=O)[C@@H]1[C@H](OC(=O)NCCCO)[C@@H](C(=O)O)C[C@H]1NC(=N)N | 0.64 | 2.22 | – | > 100 | – | – | – | 26 | – | – | – | –
4 | CCC(CC)[C@H](NC(C)=O)[C@@H]1[C@H](OC(=O)NCCCNC(=O)/C=C/c2ccc(O)c(O)c2)[C@@H](C(=O)O)C[C@H]1NC(=N)N | 0.44 | 1.56 | 1.8 | > 100 | Active | – | 100 | – | Stable | Metabolite_Notdetected | Metabolite_Detected | –
5 | CCC(CC)[C@H](NC(C)=O)[C@@H]1[C@H](O)[C@@H](C(=O)O)C[C@H]1NC(=N)N [PERAMIVIR ANHYDROUS] | 0.48 | 6.68 | 0.4 | > 100 | – | 2 | – | – | – | – | – | –
6 | CCC(CC)OC1C=C(C(=O)O)C[C@H](N)[C@H]1NC(C)=O (some centres undefined) | – | 16.6 | – | > 100 | – | – | – | – | – | – | – | –
7 | CCOC(=O)C1=C[C@@H](OC(CC)CC)[C@H](NC(C)=O)[C@@H](N)C1 [OSELTAMIVIR] | – | – | – | – | – | – | – | – | – | – | – | Active
8 | CCC(CC)[C@H](NC(C)=O)[C@@H]1[C@H](OC(=O)NCCCN)[C@@H](C(=O)O)C[C@H]1NC(=N)N | 0.94 | 2.58 | – | > 100 | – | – | – | – | – | – | – | –
